Entries after “also recorded” stand apart in the source; their conditions may differ.
How the values were obtained:
lysozyme = target: T1, lysozyme (Homo sapiens, UniProt P61626); assay: Lysozyme-induced hydrogen peroxide generation measured by Ultra Amplex Red assay; type: biochemical; conditions: 6.5×10^−6 mol/L lysozyme
T1 sequence (P61626 19-148): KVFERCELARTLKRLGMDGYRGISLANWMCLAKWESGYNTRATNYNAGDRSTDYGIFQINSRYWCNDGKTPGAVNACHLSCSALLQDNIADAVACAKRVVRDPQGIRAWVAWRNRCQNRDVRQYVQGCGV

[1] = system: lysozyme's vasodilatory effect in canine carotid artery preparation; assay: Lysozyme-induced vasodilation in canine carotid artery preparation (in-vitro); conditions: canine carotid artery preparation, in-vitro
Protocol: Lysozyme produces vasodilation by intrinsically generating hydrogen peroxide (H2O2) that leads to activation of signaling pathways resulting in these hemodynamic effects (7).
Ethyl gallate is added to food as an antioxidant. It is the ethyl ester of gallic acid. Though found naturally in a variety of plant sources including walnuts (8), ethyl gallate is produced from gallic acid and ethanol (9). […] It is of note that if a substance could not inhibit lysozyme's effect in-vitro, then it would be worthless to pursue an in-vivo study.

[2] = system: POX-induced vasodilation in carotid and superior mesenteric arterial preparations; assay: Peroxacetic acid (POX)-induced vasodilation in carotid and superior mesenteric arterial preparations; parameters: species or system canine
From the text: POX is a hydroperoxide (slightly different from the molecule of hydrogen peroxide) that also may be released in septic shock by macrophages and inflammatory cells. […] However, the pathway by which POX caused vasodilation is much different than that caused by lysozyme. […] To some extent, therefore, the improvement in hemodynamics previously observed when ethyl-gallate was infused in our in-vivo study could have also been related to ethyl-gallate's inhibition of the POX pathway in addition to ethyl-gallate's inhibitory-effect on lysozyme mediated pathways.
The only similarity found between lysozyme and POX is that POX's mechanism of action is also independent of the endothelium and nitric oxide formation, since we could not prevent POX's vasodilatory effect by removal of the endothelium or by nitric oxide inhibition. In contrast to lysozyme, POX seems to cause vasodilation is by activation of an enzyme in the vascular tissue called prostaglandin H synthase (PHS). PHS has an important mechanism of action, in that after activation by hydroperoxides (such as POX), it can in turn activate the cyclooxygenase pathway leading to vasodilation.

catalase = target: T2, catalase (Homo sapiens, UniProt P04040); assay: Conversion of catalase to compound I (wave-scan spectroscopy); type: biochemical
T2 sequence (P04040 2-527 limits assumed): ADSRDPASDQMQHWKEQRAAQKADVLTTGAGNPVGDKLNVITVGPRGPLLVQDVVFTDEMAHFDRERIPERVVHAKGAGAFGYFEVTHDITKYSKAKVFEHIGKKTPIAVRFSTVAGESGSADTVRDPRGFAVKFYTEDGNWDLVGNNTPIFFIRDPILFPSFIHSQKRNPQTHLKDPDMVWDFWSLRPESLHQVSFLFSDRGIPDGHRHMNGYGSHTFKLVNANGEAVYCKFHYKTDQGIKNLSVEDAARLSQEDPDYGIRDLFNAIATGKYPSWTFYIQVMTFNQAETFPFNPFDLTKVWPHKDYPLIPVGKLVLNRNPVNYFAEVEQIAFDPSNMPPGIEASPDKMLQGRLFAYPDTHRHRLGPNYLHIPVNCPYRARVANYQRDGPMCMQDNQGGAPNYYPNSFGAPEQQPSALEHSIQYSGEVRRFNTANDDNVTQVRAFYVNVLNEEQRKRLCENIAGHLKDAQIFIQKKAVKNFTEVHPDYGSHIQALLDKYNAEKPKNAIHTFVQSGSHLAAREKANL
From the text: (§1) This generation appears to involve the mechanism described by Wentworth et al in which proteins can utilize water as a catalyst to generate H2O2 (12) Once formed by lysozyme, H2O2 then reacts with intrinsic catalase to form a species of catalase termed Compound I (2) Compound I then acts to generate cyclic-guanosine monophosphate which in turn causes vasodilation. […] These as well as other mechanisms may account for the efficacy of ethyl-gallate treatment in septic shock.

[3] = Hydrogen peroxide scavenging (Amplex Red assay, electrochemical techniques, glucosidase/glucose assay); type: biochemical; conditions: multiple methodologies
From the text: as §1

[4] = In-vivo study of mannitol (not further described)
Protocol: Ethyl gallate is added to food as an antioxidant. It is the ethyl ester of gallic acid. Though found naturally in a variety of plant sources including walnuts (8), ethyl gallate is produced from gallic acid and ethanol (9). […] Thus, ethyl gallate, methyl gallate, and ethyl 3,4 dihydroxybenzoate has unique properties for the treatment of septic shock. It is of note that if a substance could not inhibit lysozyme's effect in-vitro, then it would be worthless to pursue an in-vivo study.

| Compound | block of lysozyme's vasodilatory effect [1] | further results |
| --- | --- | --- |
| C[S+](C)[O-] [DMSO] |  | inhibition of lysozyme-induced hydrogen peroxide generation (lysozyme): do not inhibit |
| CC(=O)N[C@@H](CS)C(=O)O [N-acetylcyteine] | failed to block |  |
| [Ba] [barium] |  | inhibition of vasodilation caused by POX [2]: could be prevented |
| CC(/C=C/C=C(\C)C(=O)O[C@@H]1O[C@H](CO[C@@H]2O[C@H](CO)[C@@H](O)[C@H](O)[C@H]2O)[C@@H](O)[C@H](O)[C@H]1O)=C\C=C\C=C(C)\C=C\C=C(/C)C(=O)O[C@@H]1O[C@H](CO[C@@H]2O[C@H](CO)[C@@H](O)[C@H](O)[C@H]2O)[C@@H](O)[C@H](O)[C@H]1O [crocin] | failed to block |  |
| COc1cc(/C=C/C(=O)CC(=O)/C=C/c2ccc(O)c(OC)c2)ccc1O [curcumin] | failed to block |  |
| O=c1oc2c(O)c(O)cc3c(=O)oc4c(O)c(O)cc1c4c23 [ellagic acid] | failed to block |  |
| O=C(O[C@@H]1Cc2c(O)cc(O)cc2O[C@@H]1c1ccc(O)c(O)c1)c1cc(O)c(O)c(O)c1 [epicathechin gallate] | failed to block |  |
| O=C(O[C@@H]1Cc2c(O)cc(O)cc2O[C@@H]1c1cc(O)c(O)c(O)c1)c1cc(O)c(O)c(O)c1 [epigalloccatechin gallate] | failed to block |  |
| CCOC(=O)c1ccc(O)c(O)c1 [ethyl 3,4-dihydroxybenzoate] | blocked |  |
| O=C(O)c1cc(O)c(O)c(O)c1 [gallic acid, reference compound] | could not block; also recorded: failed to block | inhibition of degradation of catalase to compound I (catalase): can also prevent; scavenging of hydrogen peroxide [3]: can scavenge |
| COc1ccccc1O [guaicol] | failed to block |  |
| COc1ccc2c(c1)c(CC(=O)O)c(C)n2C(=O)c1ccc(Cl)cc1 [indomethacin] |  | inhibition of vasodilation caused by POX [2]: could be inhibited |
| C=C(C)[C@H]1CC=C(C)CC1 [limonene] | failed to block |  |
| O=c1cc(-c2ccc(O)c(O)c2)oc2cc(O)cc(O)c12 [luteolin] | failed to block |  |
| OC[C@@H](O)[C@@H](O)[C@H](O)[C@H](O)CO [mannitol] | worked | inhibition of lysozyme-induced hydrogen peroxide generation (lysozyme): do not inhibit; effect in-vivo [4]: did not have a positive effect |
| COC(=O)c1cc(O)c(O)c(O)c1 [methyl gallate] | blocked |  |
| [K+] [potassium] |  | inhibition of vasodilation caused by POX [2]: could be prevented |
| CCCOC(=O)c1cc(O)c(O)c(O)c1 [propyl gallate] | failed to block |  |
| O.O.O=c1c(O)c(-c2ccc(O)c(O)c2)oc2cc(O)cc(O)c12 [quercetin dihydrate] | failed to block |  |
| N[C@@H](CCC(=O)N[C@@H](CS)C(=O)NCC(=O)O)C(=O)O [reduced glutathione] | failed to block |  |
| O=C1O[C@H]([C@@H](O)CO)C([O-])=C1O.[Na+] [sodium ascorbate] | failed to block |  |
| O=C([O-])c1ccccc1.[Na+] [sodium benzoate] | failed to block |  |
| catechin gallate | failed to block |  |

Source: patent publication US20120277312A1, “Ethylgallate and Related Compounds as a Treatment for Sepsis and Septic Shock” (priority 2009, published 2012)
